Results taken from publication PMC10775177, “Application of the C3-Methyltransferase StspM1 for the Synthesis of the Natural Pyrroloindole Motif” (ACS Catalysis, 2023).
Values belong to the compound of their own block, whether it stands above or below them.

Legend:
[1] = tested on: T1, StspM1; assay: MTase-Glo bioluminescence assay (SAH formation), Michaelis-Menten; assay type: biochemical, Streptomyces sp. HPH0547
T1 construct: recombinant from E. coli BL21 Gold (DE3), Ni-NTA purified

[2] = biological target: C3-methyltransferase StspM1 from Streptomyces sp. HPH0547 (Streptomyces sp. HPH0547); assay: SEC; size exclusion chromatography to determine the oligomerization state; measured weight 70.5 kDa against 61.8 kDa for a dimer

- Km ([1]; first methylation, 1.5 μM enzyme, co-substrate SAM fixed at 50 μM, cWW 0.2-200 μM): 3.86 µM
Compound: O=C1N[C@@H](Cc2c[nH]c3ccccc23)C(=O)N[C@H]1Cc1c[nH]c2ccccc12 [7a, LL-cWW]

- Km ([1]; first methylation, 1.5 μM enzyme, co-substrate SAM fixed at 50 μM, cWW 0.2-200 μM, compound label misprinted as 7c): 14.8 µM
Compound: O=C1N[C@H](Cc2c[nH]c3ccccc23)C(=O)N[C@@H]1Cc1c[nH]c2ccccc12 [7b, DD-cWW]

Compound: C[C@@]12C[C@H]3C(=O)N[C@@H](Cc4c[nH]c5ccccc45)C(=O)N3[C@@H]1Nc1ccccc12 [compound 14, single-methylated LL-cWW]
- Km ([1]; second methylation step): 32.5 µM

- stoichiometry N [2]: 2
Compound: C3-methyltransferase StspM1 from Streptomyces sp. HPH0547 (enzyme)
